Like-named read-outs stand apart in the source and are kept apart here.
Assays:
[1] = system: AhR-mediated cyp1a1 expression; test: AhR-mediated cyp1a1 expression in epithelial colonic organoids
Protocol: In FIG. 7A, the metabolites (3-indole acetic acid, 3-methylindole, indole, indoleacrylate, 3-indole butyric acid, and indolepropionic acid, IPA) were added at three different concentrations (50, 100, and 200 μM), with increasing concentrations from right to left. Untreated epithelial organoids (Untd) were used as a negative control. In FIG. 7B, supernatants were collected from cultures containing different bacteria (Clostridium sporogenes 1, Clostridium sporogenes 2, Peptostreptococcus stomatis, Clostridium glycolicum, Bacteroides sp. 4 1 36) and were provided to the epithelial organoids at two different concentrations (5% and 2% final concentration), with the left bar corresponding to the higher concentration. The SCFAs and tryptophan metabolites present in each supernatant (from FIGS. 17 and 18) are indicated. IPA: indolepropionic acid; IAcryl: Indole acrylate; 3Mind: 3-methylindole; I3Carb: indole-3-carbinol; C3: propionate; C4: butyrate; C5: valerate; C6: hexanoate; BCFA: branch chain fatty acids.
AhR activation is reportedly associated with strengthening of the intestinal epithelial barrier and mucosal homeostasis in the intestine by inducing broad changes in gene expression. […] An increase in Cyp1a1 expression is considered to be a specific measure of AhR-mediated gene expression.

[2] = system: TNF-α-driven IL-8 secretion by HT29 epithelial cells; test: Anti-inflammatory assay in IECs (TNF-α-driven IL-8 secretion); assay type: cell-based, human; settings: 1 hour pre-treatment
[3] = system: primary human colon epithelial cell monolayer; test: Primary epithelial cell monolayer barrier integrity assay (IFN-γ, FITC-dextran); settings: 5 mM
Protocol: The assays were performed using a primary epithelial cell monolayer barrier integrity assay. […] The addition of interferon-gamma (IFN-γ) disrupts the tight junctions of the epithelial monolayer and induces apoptosis of epithelial cells. The leakiness of the membrane can be assessed by adding FITC-dextran to the apical side of the apparatus and measuring how rapidly it can pass to the basolateral compartment. A leaky monolayer will allow FITC-dextran to the basal side of the apparatus more quickly than a monolayer with an intact monolayer.
Briefly, the barrier integrity assay was conducted as follows. Primary human colon organoid cultures established from isolated colon crypts were grown and expanded in Matrigel® (Corning) and 50% L-cell conditioned medium containing Wnt3a, R-spondin 3 and Noggin (L-WRN) as described by VanDussen et al. containing 10 uM Y-27632 and 10 uM SB43152 (Gut 64:911-920, 2015). […] After the 48-hour incubation, colonic epithelial monolayer permeability was assessed by adding 10 μL of 10 ng/ml FITC-Dextran (4 kDa, Sigma) to the apical interface, the organoids were incubated for 1 hour and then 100 μL of medium was collected from the basolateral compartment of each transwell and transferred to a 96 well plate for fluorescence detection.

[4] = system: clinical remission of ulcerative colitis; assay type: in vivo, human; settings: UC patients treated with HHSP
[5] = system: HDAC enzymes (HeLa nuclear extract); test: HDAC inhibition assay (HDAC-Glo I/II, HeLa nuclear extract); assay type: biochemical; settings: for HDAC Inhibition in any C source (25/18% cutoff): single strain supernatants, PY medium with one of seven C sources
[6] = GC-MS of SCFAs, MCFAs, BCFAs and tryptophan metabolites in bacterial supernatants; settings: single strain supernatants
Excerpt: FIG. 18 provides a table listing bacterial species and the short chain fatty acids (SCFAs), medium chain fatty acids (MCFAs), and branched chain fatty acids (BCFAs) produced by each of the species. […] The limit of detection for each of the fatty acids is provided in the row labeled “Limit of Detection (LOD).” The SCFAs measured included: acetic acid, propanoic acid, and butanoic acid. The MCFAs measured included: pentanoic acid, hexanoic acid, heptanoic acid. The BCFAs measured included: 2-methyl-propanopic acid, 3-methyl-butanoic acid, and 4-methyl-pentaoic acid.
FIG. 19 provides a table listing bacterial species and tryptophan metabolites produced by the species. […] The limit of detection for each of the fatty acids is provided in the row labeled “Limit of Detection (LOD).” The tryptophan metabolites measured included: indole, 3-methylindole, indol-3-propanoic acid, indole-3-butyric acid, 3-indoleacrylic acid, tryptamine, indole-3-acetic acid, 3-indole-glycoxylic acid, 2-picolinic acid, and 5-hydroxytryptamine.
As described supra, certain tryptophan (Trp) metabolites were associated with remission in patients treated with an HHSP. […] The presence of the tryptophan metabolites was determined using a colorimetric assay for detection of indolic compounds (Indole Reagent, Anaerob Systems). […]

[7] = intestinal epithelial organoids

Molecule	HDAC cluster assignment [5]	HDAC Inhibition in any C source (25/18% cutoff) [5]	further results
O=C(O)Cc1c[nH]c2ccccc12 [3-indole acetic acid]	–	–	AhR-mediated cyp1a1 expression [1, 7]: induced AhR-mediated cyp1a1 expression
Cc1c[nH]c2ccccc12 [3-methylindole]	–	–	AhR-mediated cyp1a1 expression ([1]; human): induced AhR-mediated cyp1a1 expression
CC(=O)O [acetate]	–	–	TNF-α-dependent IL-8 secretion by IECs [2]: reduced levels of TNF-α-dependent IL-8 secretion
CCCC(=O)O [butyrate]	–	–	decrease of permeability [3]: 50%
c1ccc2[nH]ccc2c1 [indole]	–	–	AhR-mediated cyp1a1 expression [1, 7]: induced AhR-mediated cyp1a1 expression
O=C(O)/C=C/c1c[nH]c2ccccc12 [indoleacrylate]	–	–	AhR-mediated cyp1a1 expression [1, 7]: induced AhR-mediated cyp1a1 expression
CCC(=O)O [propionate]	–	–	TNF-α-dependent IL-8 secretion by IECs [2]: reduced levels of TNF-α-dependent IL-8 secretion
Clostridium bolteae	–	–	Associated Clinical Outcome [4]: Remitter
Clostridium clostridioforme	6	1 (If a strain exhibits HDACi activity of at least 0.25 in any nutrient, or 0.18 in fucose, it is considered to have HDACi activity and it is marked with “1”)	–
Clostridium disporicum	0	1 (If a strain exhibits HDACi activity of at least 0.25 in any nutrient, or 0.18 in fucose, it is considered to have HDACi activity and it is marked with “1”)	–
Clostridium glycolicum	–	–	hexanoate production [6]: Hexanoate producing
Clostridium mayombei	2	1 (If a strain exhibits HDACi activity of at least 0.25 in any nutrient, or 0.18 in fucose, it is considered to have HDACi activity and it is marked with “1”)	–
Clostridium sp 7 2 43FAA	–	1 (If a strain exhibits HDACi activity of at least 0.25 in any nutrient, or 0.18 in fucose, it is considered to have HDACi activity and it is marked with “1”)	HDAC cluster assignment ([5]; pattern of HDAC inhibition across nutrient sources): 5
Clostridium symbiosum	–	–	Associated Clinical Outcome [4]: Remitter
Clostridium tertium	5	1 (If a strain exhibits HDACi activity of at least 0.25 in any nutrient, or 0.18 in fucose, it is considered to have HDACi activity and it is marked with “1”)	–
Parabacteroides distasonis	3	1 (If a strain exhibits HDACi activity of at least 0.25 in any nutrient, or 0.18 in fucose, it is considered to have HDACi activity and it is marked with “1”)	–

Source: patent publication US20230125810A1, “DESIGNED BACTERIAL COMPOSITIONS AND USES THEREOF” (Seres Therapeutics, Inc., priority 2019, published 2023)
